Assay results published in patent publication US20100240642A1, “1H-Indole-2-Carboxylic Acid Derivatives Useful As PPAR Modulators” (SMITHKLINE BEECHAM CORPORATION, priority 2006, published 2010).
Counter-ions that a name gives are not always drawn. Like-named read-outs stand apart in the source and are kept apart here.

How the values were obtained:
hPPARγ receptor = target: T1, hPPARγ receptor (Homo sapiens, UniProt P37231); assay: PPARγ Cell-based luciferase assay
T1 construct: expressed in transfected cells; host or cells: CV-1 (African Green Monkey kidney, ATCC CCL-70)
T1 sequence (P37231 172-475 isoform P37231-2): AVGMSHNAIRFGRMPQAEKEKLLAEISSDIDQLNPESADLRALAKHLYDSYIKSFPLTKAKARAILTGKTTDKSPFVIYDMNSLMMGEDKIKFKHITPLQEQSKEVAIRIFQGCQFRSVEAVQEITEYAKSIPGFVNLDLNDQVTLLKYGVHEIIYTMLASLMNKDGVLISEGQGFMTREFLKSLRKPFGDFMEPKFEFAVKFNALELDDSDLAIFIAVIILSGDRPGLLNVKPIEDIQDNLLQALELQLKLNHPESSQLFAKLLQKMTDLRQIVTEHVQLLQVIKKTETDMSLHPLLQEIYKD
Text: Plasmids—PCR primers containing Kpnl and BamHI restriction sites were used to amplify PPARγ ligand binding domain (LBD) fragment (172-475) from a full-length human clone. The LBD fragment was ligated into the multiple cloning site of pFA-CMV (Stratagene). The resulting construct (pFA-CMV-GAL4-hPPARγLBD carried a fusion of the LBD with the yeast-derived GAL4 DNA-binding domain under the control of the CMV immediate early promoter. Reporter construct UAStkLuc carries a single 17 bp (CGGAGTACTGTCCTCCG) upstream activating sequence (UAS), the tk minimal promoter, and the firefly luciferase gene. The integrity of each construct was confirmed by diagnostic restriction digestion and by sequencing. Plasmid DNA was prepared using Qiagen Maxi-Prep kits.
PPARγ Cell-based luciferase assay—African Green Monkey kidney cell line CV-1 (ATCC CCL-70) was maintained in Dulbecco's Modified Eagle's Medium (D-MEM) containing 10% fetal bovine serum, 2 mM glutamine, and 1% penicillin/streptomycin (pen/strep). In preparation for luciferase assays, CV-1 cells were grown in charcoal-stripped cell medium containing D-MEM/F-12 medium supplemented with 5% or 3% dextran-treated/charcoal-stripped (CS) fetal bovine serum, 2 mM glutamine, with or without 1% pen/strep, as described below. CS fetal bovine serum was purchased from Hyclone; all other cell culture reagents were from Gibco.
The luciferase protocol is a multi-day procedure. On day 1, confluent cells in maintenance medium were subcultured 1:10 into T-175 cm^2 flasks containing 50 mL of 3% CS medium with pen/strep. These flasks were allowed to incubate at 5% CO2 and 37° C. for 72 hours.
Cells were harvested by trypsinization and then transfected using FuGENE (Roche) according to the manufacturer's specifications. Briefly, each transfection contained 0.55 μg pFA_CMV_GAL4_hPPARγ_LBD plasmid, 10.9 μg UAStkLUC, and 24 μg pBluescript (carrier DNA). Plasmid DNA was mixed with FuGENE in OptiMEM-1 medium and incubated for 30 min at room temperature. During this incubation, cells were harvested into 3% CS medium without pen-strep and dispensed at 14 million cells per T-175 cm^2 flask. Transfection mixes were added to the flasks and incubated overnight at 5% CO2 and 37° C.
Transfected cells were added to 384-well plates containing pharmacological agents. Rosiglitazone standard was reconstituted in DMSO at 1 mM. For 11-point dose-response experiments, the compounds were 3-fold serially diluted in DMSO and then stamped to 384-well assay plates (NUNC, catalog #164564) at 0.5 μL/well using a Beckman FX. DMSO and agonist control compound Rosiglitazone (1 mM) were each stamped at 0.5 μL/well to columns 23 and 24, respectively, of the 384-well plates. Transfected cells were harvested in 5% CS medium with pen/strep and dispensed at 10,000 cells/well (50 μL) onto the prepared 384-well compound plates using a Titertek Multidrop. Following overnight incubation at 5% CO2 and 37° C., Steady-Glo reagent (Promega) was added to the assay plates using a Multidrop. Plates were incubated for 10 min to ensure complete cell lysis and read in a ViewLux (PerkinElmer). […] Partial agonism is defined here as 20-80% activation (relative to full agonist rosiglitazone) at concentrations of 10^−6 M or less.

[1] = system: Male Zucker Diabetic Fatty rats; assay: In vivo evaluation: serum glucose in Zucker Diabetic Fatty rats; design: species or system rat; conditions: 10 mg/kg once daily by oral gavage, 28 days, percent reduction from vehicle control at day 28 relative to normalization (140 mg/dL)
Description: Male Zucker Diabetic Fatty rats were lightly anesthetized with isofluorane gas and bleed by tail vein to obtain postprandial baseline concentrations for serum glucose, serum lipids and insulin. Animals were baseline matched by serum glucose and randomized into vehicle or treatment groups with compound administration by oral gavage beginning at 6.5 weeks of age. Selected compounds were administered once daily at 10 mg/kg in 25 mM N-Methyl-Glucamine with 5% w/v Solutol HS15. After 28 consecutive days of treatment, blood samples were obtained and analyzed for serum glucose. Values in Table 1 for % Glucose reduction represent a summary of the percent reduction from vehicle control animals at day 28 relative to normalization defined in this model as serum glucose levels of 140 mg/dL.

[2] = CV-1 cells transfected with GAL4-hPPARγ LBD and UAStkLuc, at concentrations of 10^−6 M or less, read-out: agonism of the hPPARγ receptor (activation relative to full agonist rosiglitazone)

COc1cc(Cn2c(C(=O)O)c(-c3ccc(C(C)(C)C)cc3)c3ccccc32)cc(-c2ccc(C(=O)O)cc2)c1 [Example 18, 1-{[4′-carboxy-5-(methyloxy)-3-biphenylyl]methyl}-3-[4-(1,1-dimethylethyl)phenyl]-1H-indole-2-carboxylic acid]
Emax (hPPARγ receptor; [2]): 20 to 80% | % Glucose Reduction [1]: 44%

CC(C)(C)c1ccc(-c2c(C(=O)O)n(Cc3cccc(-c4ccc(S(C)(=O)=O)cc4)c3)c3ccccc23)cc1 [Example 24, 3-[4-(1,1-dimethylethyl)phenyl]-1-{[4′-(methylsulfonyl)-3-biphenylyl]methyl}-1H-indole-2-carboxylic acid]
Emax (hPPARγ receptor; [2]): 20 to 80% | % Glucose Reduction [1]: 79%

COCCOc1cc(Cn2c(C(=O)O)c(-c3ccc(C(C)(C)C)cc3)c3ccccc32)cc(OCC2CC2)c1 [Example 2, 1-[(3-[(cyclopropylmethyl)oxy]-5-{[2-(methyloxy)ethyl]oxy}phenyl)methyl]-3-[4-(1,1-dimethylethyl)phenyl]-1H-indole-2-carboxylic acid]
Emax (hPPARγ receptor; [2]): 20 to 80% | % Glucose Reduction [1]: 96%

CCOC(=O)N1CCN(c2cccc(Cn3c(C(=O)O)c(-c4ccc(C(C)(C)C)cc4)c4ccccc43)c2)CC1 [Example 46, 3-[4-(1,1-dimethylethyl)phenyl]-1-[(3-{4-[(ethyloxy)carbonyl]-1-piperazinyl}phenyl)methyl]-1H-indole-2-carboxylic acid]
Emax (hPPARγ receptor; [2]): 20 to 80%

CC(C)(C)c1ccc(-c2c(C(=O)O)n(Cc3cc(OCCN4CCCC4)cc(OCC4CC4)c3)c3ccccc23)cc1 [Example 41, 1-[(3-[(cyclopropylmethyl)oxy]-5-{[2-(1-pyrrolidinyl)ethyl]oxy}phenyl)methyl]-3-[4-(1,1-dimethylethyl)phenyl]-1H-indole-2-carboxylic acid]
Emax (hPPARγ receptor; [2]): 20 to 80%

CC(C)(C)c1ccc(-c2c(C(=O)O)n(Cc3cccc(-c4cccc(S(C)(=O)=O)c4)c3)c3ccccc23)cc1 [Example 25, 3-[4-(1,1-dimethylethyl)phenyl]-1-{[3′-(methylsulfonyl)-3-biphenylyl]methyl}-1H-indole-2-carboxylic acid]
Emax (hPPARγ receptor; [2]): 20 to 80%

CC(C)(C)c1ccc(-c2c(C(=O)O)n(Cc3cccc(N4CCN(C(N)=O)CC4)c3)c3ccccc23)cc1 [Example 37, 1-({3-[4-(aminocarbonyl)-1-piperazinyl]phenyl}methyl)-3-[4-(1,1-dimethylethyl)phenyl]-1H-indole-2-carboxylic acid]
Emax (hPPARγ receptor; [2]): 20 to 80%

CC(C)(C)c1ccc(-c2c(C(=O)O)n(Cc3cccc(N4CCSCC4)c3)c3ccccc23)cc1 [Example 44, 3-[4-(1,1-dimethylethyl)phenyl]-1-{[3-(4-thiomorpholinyl)phenyl]methyl}-1H-indole-2-carboxylic acid]
Emax (hPPARγ receptor; [2]): 20 to 80%

COCCOc1cc(Cn2c(C(=O)O)c(Nc3ccc(C(C)(C)C)cc3)c3ccccc32)cc(OCCOC)c1 [Example 62, 1-[(3,5-bis{[2-(methyloxy)ethyl]oxy}phenyl)methyl]-3-{[4-(1,1-dimethylethyl)phenyl]amino}-1H-indole-2-carboxylic acid]
Emax (hPPARγ receptor; [2]): 20 to 80%

Cc1ccc(-c2ccc(C(=O)NCc3cccs3)cc2)cc1Cn1c(C(=O)O)c(-c2ccc(C(C)(C)C)cc2)c2ccccc21 [Example 32, 3-[4-(1,1-dimethylethyl)phenyl]-1-[(4-methyl-4′-{[(2-thienylmethyl)amino]carbonyl}-3-biphenylyl)methyl]-1H-indole-2-carboxylic acid]
Emax (hPPARγ receptor; [2]): 20 to 80%

COCCOc1cc(Cn2c(C(=O)O)c(-c3cc4ccccc4o3)c3ccccc32)cc(OCCOC)c1 [Example 60, 3-(1-benzofuran-2-yl)-1-[(3,5-bis{[2-(methyloxy)ethyl]oxy}phenyl)methyl]-1H-indole-2-carboxylic acid]
Emax (hPPARγ receptor; [2]): 20 to 80%

O=C(O)c1c(Cc2cccc(C(F)(F)F)c2)c2ccccc2n1Cc1cc(OCC2CC2)cc(OCC2CC2)c1 [Example 59, 1-({3,5-bis[(cyclopropylmethyl)oxy]phenyl}methyl)-3-{[3-(trifluoromethyl)phenyl]methyl}-1H-indole-2-carboxylic acid]
Emax (hPPARγ receptor; [2]): 20 to 80%

CN(C)CCCOc1cc(Cn2c(C(=O)O)c(Cc3cccc(C(F)(F)F)c3)c3ccccc32)cc(OCC2CC2)c1 [Example 57, 1-[(3-[(cyclopropylmethyl)oxy]-5-{[3-(dimethylamino)propyl]oxy}phenyl)methyl]-3-{[3-(trifluoromethyl)phenyl]methyl}-1H-indole-2-carboxylic acid hydrochloride]
Emax (hPPARγ receptor; [2]): 20 to 80%

COCCOc1cc(Cn2c(C(=O)O)c(-c3ccc(C(C)(C)C)cc3)c3ccccc32)cc(OCCOC)c1 [Example 66, 1-[(3,5-bis{[2-(methyloxy)ethyl]oxy}phenyl)methyl]-3-[4-(1,1-dimethylethyl)phenyl]-1H-indole-2-carboxylic acid]
Emax (hPPARγ receptor; [2]): 20 to 80%

COCCOc1cc(Cn2c(C(=O)O)c(-c3ccc(C(C)(C)C)cc3)c3ccccc32)cc(OC(=O)N2CCNC2=O)c1 [Example 53, 3-[4-(1,1-dimethylethyl)phenyl]-1-[(3-{[2-(methyloxy)ethyl]oxy}-5-{[(2-oxo-1-imidazolidinyl)carbonyl]oxy}phenyl)methyl]-1H-indole-2-carboxylic acid]
Emax (hPPARγ receptor; CV-1, read-out: agonism of the hPPARγ receptor (activation relative to full agonist rosiglitazone)): 20 to 80%

CC(C)(C)c1ccc(-c2c(C(=O)O)n(Cc3cc(OCC4CC4)cc(OCC4CC4)c3)c3ccccc23)cc1 [Example 5, 1-({3,5-bis[(cyclopropylmethyl)oxy]phenyl}methyl)-3-[4-(1,1-dimethylethyl)phenyl]-1H-indole-2-carboxylic acid]
Emax (hPPARγ receptor; [2]): 20 to 80%

Cc1ccc(-c2cccc(C(=O)NCc3cccs3)c2)cc1Cn1c(C(=O)O)c(-c2ccc(C(C)(C)C)cc2)c2ccccc21 [Example 30, 3-[4-(1,1-dimethylethyl)phenyl]-1-[(4-methyl-3′-{[(2-thienylmethyl)amino]carbonyl}-3-biphenylyl)methyl]-1H-indole-2-carboxylic acid]
Emax (hPPARγ receptor; [2]): 20 to 80%

CC(C)(C)c1ccc(-c2c(C(=O)O)n(Cc3cc(OCC4CC4)cc(-c4ccc(C(=O)O)cc4)c3)c3ccccc23)cc1 [Example 15, 1-({4′-carboxy-5-[(cyclopropylmethyl)oxy]-3-biphenylyl}methyl)-3-[4-(1,1-dimethylethyl)phenyl]-1H-indole-2-carboxylic acid]
Emax (hPPARγ receptor; [2]): 20 to 80%

CC(C)(C)c1ccc(-c2c(C(=O)O)n(Cc3cccc(N4CCN(S(C)(=O)=O)CC4)c3)c3ccccc23)cc1 [Example 34, 3-[4-(1,1-dimethylethyl)phenyl]-1-({3-[4-(methylsulfonyl)-1-piperazinyl]phenyl}methyl)-1H-indole-2-carboxylic acid]
Emax (hPPARγ receptor; [2]): 20 to 80%

COCCOC(=O)N1CCN(c2cccc(Cn3c(C(=O)O)c(-c4ccc(C(C)(C)C)cc4)c4ccccc43)c2)CC1 [Example 48, 3-[4-(1,1-dimethylethyl)phenyl]-1-({3-[4-({[2-(methyloxy)ethyl]oxy}carbonyl)-1-piperazinyl]phenyl}methyl)-1H-indole-2-carboxylic acid]
Emax (hPPARγ receptor; [2]): 20 to 80%
